Assays:
[1] = tested on: type II collagen-induced arthritis; test: Rat type II collagen-induced arthritis model evaluation test; assay type: in vivo, LEW/CrlCrlj rats; conditions: oral 6 mg/mL solution at 5 mL/kg once a day from Day 12, hind limb volume on Day 21, rats
Method: In order to evaluate the inhibitory action for autoimmune and inflammatory diseases of the present compounds, the evaluation of Rat type II collagen-induced arthritis model was carried out. The specific method is described below.
0.05 mol/L acetic acid was added to bovine type II collagen (Collagen Research Center, Cat No. K42) so that it became 2 mg/mL on the day before primary sensitization and secondary sensitization, and the mixture was allowed to stand overnight in a refrigerator to dissolve the material. Immediately before sensitization, it was mixed with an equal amount of Freund's incomplete adjuvant (available from Difco, Cat No. 263910) to prepare an emulsion for sensitization.
An appropriate amount of each compound was weighed, triturated with an agate mortar, and suspended or dissolved in 1% methyl cellulose solution to prepare 6 mg/mL solution.
LEW/CrlCrlj rats (female, purchased from Charles River Laboratories Japan, Inc.) were weighted on the day of primary sensitization (Day 0) and primary grouped to an arthritis non-induced group and an arthritis induced group based on the measured body weight using a random number. The rats (other than the arthritis non-induced group) were thereafter administrated the emulsion for sensitization ([…]) into the skin of the dorsum (divided into 5 portions) under general anesthesia with isoflurane inhalation (available from Mylan Seiyaku Ltd.). Seven days after the primary sensitization (Day 7), the rats (other than the arthritis non-induced group) were manually held in hands and administered the emulsion for sensitization (100 μL) into the skin of the tail. On Day 12, the rats developing arthritis were selected, a random number was used to avoid difference in an average hind limb volume between the groups, and the arthritis induced group was secondary grouped to a control group and each compound-administered group, wherein each group contained 8 samples. The rats were forced orally administered 1% methyl cellulose solution (arthritis non-induced group and control group) or each administration solution comprising the compound (each compound-administered group) at a dose of 5 mL/kg into stomach using a feeding needle once a day from Day 12. The volume of both hind limbs of each rat was measured using a plethysmometer (from Unicom) on Day 0, 4, 7, 12, 14, 18 and 21.
(Calculation of Limb Edema Suppression Rate) The limb edema suppression rate (%) was calculated by the following equation using Microsoft EXCEL 2010. Limb edema suppression rate (%)=100−{(average value of hind limb volume of each compound-administered group on Day 21)−(average value of hind limb volume of arthritis non-induced group on Day 21))/(average value of hind limb volume of control group on Day 21)−(average value of hind limb volume of arthritis non-induced group on Day 21)}×100

IL-6 production = test: LPS-induced IL-6 production model test; assay type: in vivo, C57BL/6J mice; conditions: Mus musculus, 1 h; 10 mg/kg oral, 30 min before LPS 1 mg/kg i.p., serum IL-6 60 min after LPS, mice
Method: In order to evaluate the inhibitory activity of inflammatory cytokine production in the present compounds, LPS-induced IL-6 production model evaluation was carried out. The specific method is described below.
An appropriate amount of each compound was weighed, triturated with an agate mortar, and suspended or dissolved in 1% methyl cellulose solution to prepare 1 mg/mL solution.
C57BL/6J mice (male, Purchaser: Charles River Laboratories Japan, Inc.) were weighted, before divided into normal group, control group and each compound-administered group based on the measured body weight using a random number, wherein each group contained 6 samples. The mice were manually held in hands and forced orally administered the 1% methyl cellulose solution (normal and control group) or each administration solution comprising the compound (each compound-administered group) at a dose of 10 mL/kg into stomach using a feeding needle. After 30 minutes from administration of the 1% methyl cellulose solution or each compound administration solution, the mice were manually held in hands and intraperitoneally administered physiological saline (normal group) or LPS solution (control and each compound-administered group) at a dose of 1 mg/kg. After 60 minutes from administration of the LPS solution, whole blood was collected from the abdominal vena cava of each mouse under isoflurane inhalation anesthesia (available from Mylan Seiyaku Ltd.), and the mice were euthanized. The collected blood was allowed to stand at room temperature for one hour, and then centrifuged at 1,500 G for 10 minutes to collect a serum (supernatant). The collected serum was stored in a deep freezer set at −80° C. until the measurement of IL-6 in the serum. The IL-6 concentration in the serum of each mouse was measured by a commercially available kit (available from R&D systems, Cat No. M6000B), according to the protocol attached thereto.
The IL-6 production inhibition rate (%) was calculated by the following equation using Microsoft EXCEL 2010. IL-6 production inhibition rate (%)=100−{(average value of IL-6 concentration in serum of each compound-administered group)−(average value of IL-6 concentration in serum of normal group))/(average value of IL-6 concentration in serum of control group)−(average value of IL-6 concentration in serum of normal group)}×100

[2] = molecular target: Recombinant BRD4 (44-168) protein (Homo sapiens (Human), UniProt O60885); test: BRD4-H4KAc4 binding assay (amplified luminescence proximity homogeneous assay, AlphaScreen); conditions: 10 uM
Summary of the method: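 His/FLAG-tagged BRD4 (44-168) and biotinylated tetra-acetylated H4 peptide, each added as 250 nM solutions, incubated with compound 60 min at room temperature in the dark, then AlphaScreen beads 60 min. Emission 520-620 nm at 680 nm excitation, duplicates; % inhibition from blank- and DMSO-corrected signal.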

| Compound | Limb edema suppression rate(%) [1] [%] | inhibition in vivo at 10 mg/kg (IL-6 production) [%] | inhibition at 10 µM [2] [%] |
| --- | --- | --- | --- |
| Cc1sc2c(c1C)C(c1ccc(Cl)cc1)=NN(Cc1ccccn1)c1nnc(C)n1-2 [Example 5, 4-(4-chlorophenyl)-2,3,9-trimethyl-6-(pyridin-2-ylmethyl)-6H-thieno[2,3-e][1,2,4]triazolo[3,4-c][1,2,4]triazepine] | 92.9 | 77.5 | 100 |
| Cc1sc2c(c1C)C(c1ccc(Cl)cc1)=NN(Cc1cccnc1F)c1nnc(C)n1-2 [Example 25, 4-(4-chlorophenyl)-6-((2-fluoropyridin-3-yl)methyl)-2,3,9-trimethyl-6H-thieno[2,3-e][1,2,4]triazolo[3,4-c][1,2,4]triazepine] | 39.8 | 26.3 | 100 |
| Cc1sc2c(c1C)C(c1ccccc1)=NN(Cc1ccccn1)c1nnc(C)n1-2 [Example 31, 2,3,9-trimethyl-4-phenyl-6-(pyridin-2-ylmethyl)-6H-thieno[2,3-e][1,2,4]triazolo[3,4-c][1,2,4]triazepine] | 68.9 | 57.5 | 97.8 |
| Cc1sc2c(c1C)C(c1ccc(Cl)cc1)=NN(Cc1cccnc1Cl)c1nnc(C)n1-2 [Example 38, 4-(4-chlorophenyl)-6-((2-chloropyridin-3-yl)methyl)-2,3,9-trimethyl-6H-thieno[2,3-e][1,2,4]triazolo[3,4-c][1,2,4]triazepine] | 11.9 | 20.2 | 100 |
| CC(=O)Nc1ccc(C2=NN(Cc3cccnc3)c3nnc(C)n3-c3sc(C)c(C)c32)cc1 [Example 71, N-(4-(2,3,9-trimethyl-6-(pyridin-3-ylmethyl)-6H-thieno[2,3-e][1,2,4]triazolo[3,4-c][1,2,4]triazepin-4-yl)phenyl)acetamide] | 93.8 | 79 | 100 |

From patent US11186588B2 (AYUMI PHARMACEUTICAL CORPORATION, priority 2017, dated 2021)
